Laboratory results: US8147818B2, “Hepatitis C virus inhibitors” (Bristol-Myers Squibb Company, priority 2008, dated 2012)
pEC50: −log10 of the molar value.

What follows are compounds tested on HCV 1b-377-neo replicon cells (assay: HCV Replicon assay, HCV 1b-377-neo replicon cells). Conditions: Hepatitis C virus, read-out: EC50 against HCV 1b (Activity or Range).
Format: cell-based, HCV 1b genotype
Experimental: An HCV Replicon assay was utilized in the present disclosure, and was prepared, conducted and validated as described in commonly owned PCT/US2006/022197 and in O'Boyle et. al. Antimicrob Agents Chemother. 2005 April; 49(4):1346-53.
HCV 1b-377-neo replicon cells were used to test the currently described compound series as well as cells resistant to compound A containing a Y2065H mutation in NS5A (described in application PCT/US2006/022197). The compounds tested were determined to have more than 10-fold less inhibitory activity on cells containing the mutation than wild-type cells indicating a related mechanism of action between the two compound series. Thus, the compounds of the present disclosure can be effective to inhibit the function of the HCV NS5A protein and are understood to be as effective in combinations as previously described in application PCT/US2006/022197 and commonly owned WO/O4014852. Further, the compounds of the present disclosure can be effective against the HCV 1b genotype. It should also be understood that the compounds of the present disclosure can inhibit multiple genotypes of HCV. […] In one embodiment compounds of the present disclosure are active against the 1a, 1b, 2a, 2b, 3a, 4a, and 5a genotypes.

Point of comparison: COC(=O)N[C@H](C(=O)N1CCC[C@H]1c1ncc(-c2ccc(-c3ccc4c(c3)CCCc3[nH]c([C@@H]5CCCN5C(=O)[C@@H](NC(=O)OC)C(C)C)nc3-4)cc2)[nH]1)C(C)C [Example 22], pEC50 11.30. Against it:
- COC(=O)N[C@H](C(=O)N1CCC[C@H]1c1nc2c([nH]1)CCCc1cc(-c3ccc(-c4cnc([C@@H]5CCCN5C(C)=O)[nH]4)cc3)ccc1-2)C(C)C [Example 24] — 1.81 log units lower, 9.49
- CCN(CC)[C@@H](C(=O)N1CCC[C@H]1c1ncc(-c2ccc(-c3ccc4c(ccc5[nH]c([C@@H]6CCCN6C(=O)[C@@H](c6ccccc6)N(CC)CC)nc54)c3)cc2)[nH]1)c1ccccc1 [Example 22u.a] — 0.30 log units lower, 11.00
- COC(=O)N[C@H](C(=O)N1CCC[C@H]1c1ncc(-c2ccc(-c3ccc4c(c3)CCCc3[nH]c([C@@H]5CCCN5C(=O)[C@@H](NC(=O)OC)C(C)C)nc3-4)cc2F)[nH]1)C(C)C [Example 22g] — 0.70 log units higher, 12.00
- COC(=O)N[C@H](C(=O)N1CCC[C@H]1c1ncc(-c2ccc(-c3ccc4c(c3)Cc3nc([C@@H]5CCCN5C(=O)[C@@H](NC(=O)OC)C(C)C)[nH]c3CC4)cc2)[nH]1)C(C)C [Example 22p] — 1.50 log units lower, 9.80
- COC(=O)N[C@H](C(=O)N1CCC[C@H]1c1ncc(-c2ccc(-c3ccc4c(c3)CCc3[nH]c([C@@H]5CCCN5C(=O)[C@@H](NC(=O)OC)[C@@H](C)OC)nc3-4)cc2F)[nH]1)[C@H](C)OC [Example 22s.c] — 0.60 log units lower, 10.70
- COC(=O)N[C@@H](C(=O)N1CCC[C@H]1c1nc2c(ccc3cc(-c4ccc5c(ccc6nc([C@@H]7CCCN7C(=O)[C@H](NC(=O)OC)c7ccccc7)[nH]c65)c4)ccc32)[nH]1)c1ccccc1 [Example 22u.2b] — 0.60 log units lower, 10.70

Same assay, conditions: Hepatitis C virus, read-out: EC50 against HCV 1b (Activity or Range), range class

COC(=O)N[C@@H](C)C(=O)N1CCC[C@H]1c1ncc(-c2ccc(-c3ccc4c(c3)CCCc3[nH]c([C@@H]5CCCN5C(=O)[C@@H](NC(=O)OC)C(C)C)nc3-4)cc2)[nH]1 [Example 24.b] and COC(=O)N[C@@H](C)C(=O)N1CCC[C@H]1c1ncc(-c2ccc(-c3ccc4c(c3)CCCc3[nH]c([C@@H]5CCCN5C(=O)[C@H](C)NC(=O)OC)nc3-4)cc2)[nH]1 [Example 22.2] fall in the same range of pEC50: 10.00 to 12.00 for the first, 10.00 to 12.00 for the second.

Compared with CCN(CC)[C@@H](C(=O)N1CCC[C@H]1c1ncc(-c2cccc(-c3ccc4c(c3)-c3nc([C@@H]5CCCN5C(=O)[C@@H](c5ccccc5)N(CC)CC)[nH]c3CCC4)c2)[nH]1)c1ccccc1 [Example 22j.1], CCN(CC)[C@@H](C(=O)N1CCC[C@H]1c1ncc(-c2ccc(-c3ccc4c(c3)CCCc3[nH]c([C@@H]5CCCN5C(=O)[C@@H](c5ccccc5)N(CC)CC)nc3-4)cc2F)[nH]1)c1ccccc1 [Example 22g.1] is higher in pEC50: 7.00 to 9.00 for the first, 10.00 to 12.00 for the second. The second is the more potent here.

COC(=O)N[C@H](C(=O)N1[C@@H]2C[C@@H]2C[C@H]1c1ncc(-c2ccc(-c3ccc4c(c3)CCc3[nH]c([C@@H]5C[C@H]6C[C@H]6N5C(=O)[C@@H](NC(=O)OC)C(C)C)nc3-4)cc2F)[nH]1)C(C)C [Example 22s.1] and COC(=O)N[C@H](C(=O)N1[C@@H]2C[C@@H]2C[C@H]1c1ncc(-c2ccc(-c3ccc4c(c3)CCc3[nH]c([C@@H]5C[C@H]6C[C@H]6N5C(=O)[C@@H](NC(=O)OC)C(C)C)nc3-4)cc2)[nH]1)C(C)C [Example 22r.2] fall in the same range of pEC50: 10.00 to 12.00 for the first, 10.00 to 12.00 for the second.

COC(=O)N[C@H](C(=O)N1CCC[C@H]1c1nc2ccc3cc(-c4ccc5c(ccc6[nH]c([C@@H]7CCCN7C(=O)[C@H](O)c7ccccc7)nc65)c4)ccc3c2[nH]1)C(C)C [Example 24.1d] and CCN(CC)[C@@H](C(=O)N1CCC[C@H]1c1nc2c(ccc3cc(-c4ccc5c(ccc6nc([C@@H]7CCCN7C(=O)[C@@H](NC(=O)OC)C(C)C)[nH]c65)c4)ccc32)[nH]1)c1ccccc1 [Example 24.1] fall in the same range of pEC50: 10.00 to 12.00 for the first, 10.00 to 12.00 for the second.

COC(=O)N[C@H](C(=O)N1CCC[C@H]1c1nc2c([nH]1)CCCc1cc(-c3ccc(-c4[nH]c([C@@H]5CCCN5C(=O)[C@@H](NC(=O)OC)C(C)C)nc4CCC(F)(F)F)cc3)ccc1-2)C(C)C [Example 22a.4] and COC(=O)N[C@H](C(=O)N1CCC[C@H]1c1nc2c([nH]1)CCCc1cc(-c3ccc(-c4[nH]c([C@@H]5CCCN5C(=O)[C@@H](NC(=O)OC)C(C)C)nc4CC(F)(F)F)cc3)ccc1-2)C(C)C [Example 22a.2] fall in the same range of pEC50: 10.00 to 12.00 for the first, 10.00 to 12.00 for the second.

CCN(CC)[C@@H](C(=O)N[C@@H](C)c1nc2c([nH]1)CCCc1cc(-c3ccc(-c4cnc([C@@H]5CCCN5C(=O)[C@@H](c5ccccc5)N(CC)CC)[nH]4)cc3)ccc1-2)c1ccccc1 [Example 22c.1] and CCN(CC)[C@@H](C(=O)N1CC(F)(F)C[C@H]1c1ncc(-c2ccc(-c3ccc4c(c3)CCCc3[nH]c([C@@H]5CCCN5C(=O)[C@@H](c5ccccc5)N(CC)CC)nc3-4)cc2)[nH]1)c1ccccc1 [Example 22h.1] fall in the same range of pEC50: 10.00 to 12.00 for the first, 10.00 to 12.00 for the second.

CCN(CC)[C@@H](C(=O)N1CC(F)(F)C[C@H]1c1ncc(-c2ccc(-c3ccc4c(ccc5[nH]c([C@@H]6CC(F)(F)CN6C(=O)[C@@H](c6ccccc6)N(CC)CC)nc54)c3)cc2)[nH]1)c1ccccc1 [Example 22w.2a] and CCN(CC)[C@@H](C(=O)N1CCC[C@H]1c1ncc(-c2ccc(-c3ccc4c(c3)CCc3[nH]c([C@@H]5CCCN5C(=O)[C@@H](c5ccccc5)N(CC)CC)nc3-4)cc2)[nH]1)c1ccccc1 [Example 22r.a] fall in the same range of pEC50: 10.00 to 12.00 for the first, 10.00 to 12.00 for the second.

COC(=O)N[C@H](C(=O)N(C)[C@@H](C)c1nc2c([nH]1)CCOc1cc(-c3ccc(-c4cnc([C@@H]5CCCN5C(=O)[C@@H](NC(=O)OC)C(C)C)[nH]4)cc3)ccc1-2)C(C)C [Example 22b.2] and COC(=O)N[C@H](C(=O)N1CCC[C@H]1c1ncc(-c2ccc(-c3ccc4c(c3)CCc3[nH]c([C@@H]5CC(F)(F)CN5C(=O)[C@@H](NC(=O)OC)C(C)C)nc3-4)cc2)[nH]1)C(C)C [Example 22t.1] fall in the same range of pEC50: 10.00 to 12.00 for the first, 10.00 to 12.00 for the second.

COC(=O)N[C@H](C(=O)N1CCC[C@H]1c1ncc(-c2ccc(-c3ccc4c(c3)CCCc3c-4nc([C@@H]4CCCN4C(=O)[C@@H](NC(=O)OC)C(C)C)n3O)cc2)[nH]1)C(C)C [Example 22n] and COC(=O)N[C@H](C(=O)N1CCC[C@H]1c1ncc(-c2ccc(-c3ccc4c(c3)CCCCc3c-4nc([C@@H]4CCCN4C(=O)[C@@H](NC(=O)OC)C(C)C)n3O)cc2)[nH]1)C(C)C [Example 22q] fall in the same range of pEC50: 10.00 to 12.00 for the first, 10.00 to 12.00 for the second.

COC(=O)N[C@@H](C(=O)N1CCC[C@H]1c1ncc(-c2ccc(-c3ccc4c(c3)CCCc3[nH]c([C@@H]5CCCN5C(=O)[C@H](NC(=O)OC)c5ccccc5)nc3-4)cc2)[nH]1)c1ccccc1 [Example 22.3] and COC(=O)N[C@@H](C(=O)N1[C@@H]2C[C@@H]2C[C@H]1c1ncc(-c2ccc(-c3ccc4c(c3)CCc3[nH]c([C@@H]5C[C@H]6C[C@H]6N5C(=O)[C@H](NC(=O)OC)c5ccccc5)nc3-4)cc2)[nH]1)c1ccccc1 [Example 22r.2b] fall in the same range of pEC50: 10.00 to 12.00 for the first, 10.00 to 12.00 for the second.

COC(=O)N[C@@H](C(=O)N1[C@@H]2C[C@@H]2C[C@H]1c1ncc(-c2ccc(-c3ccc4c(c3)CCc3[nH]c([C@@H]5C[C@H]6C[C@H]6N5C(=O)[C@H](NC(=O)OC)c5ccccc5)nc3-4)cc2F)[nH]1)c1ccccc1 [Example 22s.1b] and COC(=O)N[C@@H](C(=O)N1[C@@H]2C[C@@H]2C[C@H]1c1ncc(-c2ccc(-c3ccc4c(ccc5[nH]c([C@@H]6C[C@H]7C[C@H]7N6C(=O)[C@H](NC(=O)OC)c6ccccc6)nc54)c3)cc2F)[nH]1)c1ccccc1 [Example 22v.1b] fall in the same range of pEC50: 10.00 to 12.00 for the first, 10.00 to 12.00 for the second.

CCN(CC)[C@@H](C(=O)N1CCC[C@H]1c1ncc(-c2ccc(-c3ccc4c(c3)CCCCc3c-4nc([C@@H]4CCCN4C(=O)[C@@H](c4ccccc4)N(CC)CC)n3O)cc2)[nH]1)c1ccccc1 [Example 22q.1] and CCN(CC)[C@@H](C(=O)N1[C@@H]2C[C@@H]2C[C@H]1c1ncc(-c2ccc(-c3ccc4c(c3)CCc3[nH]c([C@@H]5C[C@H]6C[C@H]6N5C(=O)[C@@H](c5ccccc5)N(CC)CC)nc3-4)cc2F)[nH]1)c1ccccc1 [Example 22s.1a] fall in the same range of pEC50: 10.00 to 12.00 for the first, 10.00 to 12.00 for the second.

COC(=O)N[C@H](C(=O)N1CCC[C@H]1c1ncc(-c2ccc(-c3ccc4c(ccc5[nH]c([C@@H]6CCCN6C(=O)[C@@H](NC(=O)OC)[C@@H](C)OC)nc54)c3)cc2)[nH]1)[C@H](C)OC [Example 22u.b] and COC(=O)N[C@H](C(=O)N1CCC[C@H]1c1nc2c(ccc3cc(-c4ccc5c(ccc6nc([C@@H]7CCCN7C(=O)[C@@H](NC(=O)OC)C(C)C)[nH]c65)c4)ccc32)[nH]1)C(C)C [Example 22u.2] fall in the same range of pEC50: 10.00 to 12.00 for the first, 10.00 to 12.00 for the second.

COC(=O)N[C@H](C(=O)N1CCC[C@H]1c1ncc(-c2ccc(-c3ccc4c(c3)CCCc3[nH]c([C@@H]5CCCN5C(=O)[C@@H](NC(=O)OC)[C@@H](C)OC)nc3-4)cc2F)[nH]1)[C@H](C)OC [Example 22g.3] and COC(=O)N[C@H](C(=O)N[C@@H](C)c1ncc(-c2ccc(-c3ccc4c(c3)CCCc3[nH]c([C@H](C)NC(=O)[C@@H](NC(=O)OC)C(C)C)nc3-4)cc2)[nH]1)C(C)C [Example 22d] fall in the same range of pEC50: 10.00 to 12.00 for the first, 10.00 to 12.00 for the second.

COC(=O)N[C@@H](C(=O)N1[C@@H]2C[C@@H]2C[C@H]1c1nc2c(ccc3cc(-c4ccc5c(ccc6nc([C@@H]7C[C@H]8C[C@H]8N7C(=O)[C@H](NC(=O)OC)c7ccccc7)[nH]c65)c4)ccc32)[nH]1)c1ccccc1 [Example 22u.5a] showed a pEC50 of 10.00 to 12.00.
